Results as given in PubChem BioAssay AID1745844 (Carcinogenic Potency Database (CPDB), 2022).
Values joined by “and” are separate entries in the source; they are usually repeats but may differ in a detail not shown here. Equal values may be shown once.

Tested on: rodent lifetime carcinogenesis bioassay, tumor incidence TD50
Test: chronic cancer bioassays in animals – CPDB, compiled studies (AID 1745844)
Settings: rat, strain Sprague-Dawley

**Q.** What does the source list for `C=CCl`?
**A.** TD50 (females, inhaled, site: extrahepatic tissue, lesion: angioma, dosed 52 weeks, study length 111 weeks): 115 mg/kg/day; TD50 (females, inhaled, site: extrahepatic tissue, lesion: angioma, dosed 52 weeks, study length 139 weeks): 399 mg/kg/day; TD50 (females, inhaled, site: extrahepatic tissue, lesion: angiosarcoma, dosed 25 weeks, study length 135 weeks): 2420 mg/kg/day; TD50 (females, inhaled, site: extrahepatic tissue, lesion: angiosarcoma, dosed 52 weeks, study length 111 weeks): 52.9 mg/kg/day; TD50 (females, inhaled, site: extrahepatic tissue, lesion: angiosarcoma, dosed 52 weeks, study length 131 weeks): 21400 mg/kg/day; TD50 (females, inhaled, site: kidney, lesion: nephroblastoma, dosed 25 weeks, study length 135 weeks): 3140 mg/kg/day; TD50 (females, inhaled, site: kidney, lesion: nephroblastoma, dosed 52 weeks, study length 111 weeks): 17.5 mg/kg/day; TD50 (females, inhaled, site: kidney, lesion: nephroblastoma, dosed 52 weeks, study length 139 weeks): 230 mg/kg/day; TD50 (females, inhaled, site: liver, lesion: angioma, dosed 25 weeks, study length 127 weeks): 913 mg/kg/day; TD50 (females, inhaled, site: liver, lesion: angioma, dosed 25 weeks, study length 135 weeks): 507 mg/kg/day; TD50 (females, inhaled, site: liver, lesion: angioma, dosed 52 weeks, study length 111 weeks): 30.7 mg/kg/day; TD50 (females, inhaled, site: liver, lesion: angioma, dosed 52 weeks, study length 139 weeks): 378 mg/kg/day; TD50 (females, inhaled, site: liver, lesion: angioma, dosed 71 weeks, study length 71 weeks): 9130 mg/kg/day; TD50 (females, inhaled, site: liver, lesion: angiosarcoma, dosed 25 weeks, study length 127 weeks): 4460 mg/kg/day; TD50 (females, inhaled, site: liver, lesion: angiosarcoma, dosed 25 weeks, study length 135 weeks): 2460 mg/kg/day; TD50 (females, inhaled, site: liver, lesion: angiosarcoma, dosed 52 weeks, study length 111 weeks): 20.2 mg/kg/day; TD50 (females, inhaled, site: liver, lesion: angiosarcoma, dosed 52 weeks, study length 131 weeks): 735 mg/kg/day and 21 mg/kg/day; TD50 (females, inhaled, site: liver, lesion: angiosarcoma, dosed 52 weeks, study length 139 weeks): 113 mg/kg/day; TD50 (females, inhaled, site: liver, lesion: angiosarcoma, dosed 71 weeks, study length 71 weeks): 240 mg/kg/day; TD50 (females, inhaled, site: liver, lesion: hepatocellular carcinoma, dosed 71 weeks, study length 71 weeks): 1720 mg/kg/day; TD50 (females, inhaled, site: liver, lesion: hepatoma, dosed 25 weeks, study length 135 weeks): 357 mg/kg/day; TD50 (females, inhaled, site: liver, lesion: hepatoma, dosed 52 weeks, study length 131 weeks): 244 mg/kg/day; TD50 (females, inhaled, site: liver, lesion: hepatoma, dosed 52 weeks, study length 139 weeks): 140 mg/kg/day; TD50 (females, inhaled, site: mammary gland, lesion: adenocarcinoma, dosed 25 weeks, study length 135 weeks): 291 mg/kg/day; TD50 (females, inhaled, site: mammary gland, lesion: adenocarcinoma, dosed 52 weeks, study length 111 weeks): 5.91 mg/kg/day; TD50 (females, inhaled, site: mammary gland, lesion: adenocarcinoma, dosed 52 weeks, study length 131 weeks): 1.66 mg/kg/day; TD50 (females, inhaled, site: mammary gland, lesion: adenocarcinoma, dosed 52 weeks, study length 139 weeks): 141 mg/kg/day; TD50 (males, by gavage, site: Zymbal's gland, lesion: carcinoma, dosed 52 weeks, study length 127 weeks): 315 mg/kg/day; TD50 (males, by gavage, site: Zymbal's gland, lesion: carcinoma, dosed 59 weeks, study length 129 weeks): 4.75 mg/kg/day; TD50 (males, by gavage, site: any site (literature study), lesion: several types, types named in the paper, dosed 52 weeks, study length 127 weeks): 37.9 mg/kg/day; TD50 (males, by gavage, site: any site (literature study), lesion: several types, types named in the paper, dosed 59 weeks, study length 129 weeks): 16.1 mg/kg/day; TD50 (males, by gavage, site: extrahepatic tissue, lesion: angioma, dosed 52 weeks, study length 127 weeks): 409 mg/kg/day; TD50 (males, by gavage, site: kidney, lesion: nephroblastoma, dosed 52 weeks, study length 127 weeks): 102 mg/kg/day; TD50 (males, by gavage, site: liver, lesion: angioma, dosed 52 weeks, study length 127 weeks): 430 mg/kg/day; TD50 (males, by gavage, site: liver, lesion: angiosarcoma, dosed 52 weeks, study length 127 weeks): 57.4 mg/kg/day; TD50 (males, by gavage, site: liver, lesion: angiosarcoma, dosed 59 weeks, study length 129 weeks): 8.45 mg/kg/day; TD50 (males, by gavage, site: liver, lesion: hepatoma, dosed 59 weeks, study length 129 weeks): 3.36 mg/kg/day; TD50 (males, inhaled, site: Zymbal's gland, lesion: carcinoma, dosed 25 weeks, study length 115 weeks): 284 mg/kg/day; TD50 (males, inhaled, site: Zymbal's gland, lesion: carcinoma, dosed 25 weeks, study length 139 weeks): 226 mg/kg/day; TD50 (males, inhaled, site: Zymbal's gland, lesion: carcinoma, dosed 52 weeks, study length 131 weeks): 2320 mg/kg/day; TD50 (males, inhaled, site: Zymbal's gland, lesion: carcinoma, dosed 52 weeks, study length 139 weeks): 50.4 mg/kg/day; TD50 (males, inhaled, site: adrenal gland, lesion: one or several types, types not named, dosed 52 weeks, study length 130 weeks): 251 mg/kg/day; TD50 (males, inhaled, site: any site (literature study), lesion: several types, types named in the paper, dosed 25 weeks, study length 115 weeks): 134 mg/kg/day; TD50 (males, inhaled, site: any site (literature study), lesion: several types, types named in the paper, dosed 25 weeks, study length 139 weeks): 284 mg/kg/day; TD50 (males, inhaled, site: any site (literature study), lesion: several types, types named in the paper, dosed 52 weeks, study length 130 weeks): 17.3 mg/kg/day; TD50 (males, inhaled, site: any site (literature study), lesion: several types, types named in the paper, dosed 52 weeks, study length 131 weeks): 950 mg/kg/day; TD50 (males, inhaled, site: any site (literature study), lesion: several types, types named in the paper, dosed 52 weeks, study length 139 weeks): 8.67 mg/kg/day; TD50 (males, inhaled, site: brain, lesion: neuroblastoma, dosed 52 weeks, study length 131 weeks): 4580 mg/kg/day; TD50 (males, inhaled, site: extrahepatic tissue, lesion: angioma, dosed 25 weeks, study length 115 weeks): 5810 mg/kg/day; TD50 (males, inhaled, site: extrahepatic tissue, lesion: angioma, dosed 52 weeks, study length 123 weeks): 31.4 mg/kg/day; TD50 (males, inhaled, site: extrahepatic tissue, lesion: angioma, dosed 52 weeks, study length 131 weeks): 8180 mg/kg/day; TD50 (males, inhaled, site: extrahepatic tissue, lesion: angioma, dosed 52 weeks, study length 139 weeks): 18 mg/kg/day
